# Laboratory results as given in US20110065919A1, “5-Substituted Indol-3-Carboxylic Acid Derivatives Exhibiting Antiviral Activity a Method for the Production and Use Thereof” (priority 2007, published 2011).
# Read-outs that look alike come from different tables or passages of the source.
# What was measured:
# [1] = system: influenza A/New Caledonia/20/99 (H1N1) virus reference strain; test: microbe, parasite or virus in culture; format: cell-based; details: for Activity at 10 μg/mL / specific activity in relation to influenza A virus reference strain (H1N1), in words / MIC50: MDCK cells; for MIC50: concentration inhibiting viral reproduction by 50%; for Chemotherapeutic Index: ratio of the MTC to the MIC50
# [2] = system: influenza A/Aichi/2/69 (H3N3) virus; test: Murine influenza pneumonia model; format: in vivo, mice; details: for Mortality reduction: versus infected control; for Survived: number of mice surviving, n=10, 60 mg/kg/day
# Description: (§1) 2. Determination of the efficacy of the compounds in the murine influenza pneumonia model.
# (§2) The mice were infected intranasally under light ether anesthesia with the influenza A/Aichi/2/69 ([…]) virus. […] The efficacy of the action of the compounds in the influenza pneumonia model were assessed according to the number of mice surviving after infection with the virus and the increase in mean life span
# (§3) The mean life span of the mice was calculated according to the following formula: MSD [mean survival day]=Σ(f(d−1)[…], where f is the number of mice dying on day d; the surviving mice were also included in f, and d in this case was 15; n is the number of mice in the group.
# [3] = system: influenza A/Aichi/2/69 virus; test: Murine influenza pneumonia model; format: in vivo, mice; details: mean life span, 60 mg/kg/day, survivors counted with d=15
# Description: as §1, §2, §3
# [4] = system: MDCK tissue culture cells; test: Cytotoxic action, maximal tolerated concentration in MDCK tissue culture cells
Compound,"efficacy at 10 μg/mL compared with arbidol, in words [1]",Activity at 10 μg/mL [1],"specific activity in relation to influenza A virus reference strain (H1N1), in words [1]",MIC50 [1] [µg/mL],Chemotherapeutic Index [1],Mortality ([2]; 60 mg/kg/day) [%],"chemotherapeutic action compared with arbidol, in words ([2]; 60 mg/kg/day)",Mortality reduction ([2]; 60 mg/kg/day) [%],Survived [2],Life Span [3] [days],MTC of the Compounds [4] [µg/mL],"MIC50 ([1]; Influenza A virus, H1N1, read-out: MIC50) [µg/mL]"
1-{6-Bromo-1-methyl-5-methoxy-2-(phenylthio)methyl-1-H-indol-3-yl}-benzylpiperazine,inferior to arbidol in efficacy,64.4,high specific activity,5.8,6.9,20,not inferior to arbidol,61,8,13.1,40,–
COc1cc2c(C(=O)N3CCCC3)c(CSc3ccccc3)n(C)c2cc1Br [B],did not differ from it,100.0,high specific activity,2.0,7.5,–,–,–,–,–,15,–
"CCOC(=O)c1c(CSc2ccccc2)n(C)c2cc(Br)c(O)c(CN(C)C)c12 [Arbidol, 1-methyl-2-phenylthiomethyl-3-carbethoxy-4-dimethylaminomethyl-5-hydroxy-6-bromindol, reference compound]",–,100.0,–,–,6.7,20,–,61,8,12.2,40,6
COc1cc2c(C(=O)N3CCCCC3)c(CSc3ccccc3)n(C)c2cc1Br [C],–,52.1,low activity,9.2,2.7,–,–,–,–,–,25,–
